Read-outs that look alike come from different tables or passages of the source.

This is an account of results in patent publication US20250064773A1, “TARGETING ERO1 ALPHA WITH AURONE DERIVATIVES” (West Virginia University Board of Governors on behalf of …, priority 2021, published 2025).

In this assay the test system is PC-9 ERO1α KO clones (CRISPR). Description: MTT viability assay, PC-9 ERO1α knockout clones. Type of assay: cell-based. As to conditions: 72 hours. As to the method:
We utilized an MTT assay to determine the potency of the compounds for inhibiting cell growth. […] We next asked whether T151742 induced inhibition of cell growth was dependent on ERO1α expression. As shown in FIG. 6C two ERO1α deleted clones in the PC-9 cell line were isolated. Using an MTT assay to determine overall cellar viability, a non-targeted control (scramble), and both ERO1α knockout clones was subjected to treatment with T151742 for 72 hours (See FIG. 6D). […] Though only slight differences were observed between T151742 and EN-460 we tested the effects of these compounds in a clonogenic assay which is a better test for inhibition of self-renewal.
Cell Lines: PC-9 cell line used was obtained from Sigma Aldrich and grown in RPMI 1640 medium with 10% fetal bovine serum and 1% penicillin/streptomycin. HCC4006, U266, MM1.s, and Beas-2B cell lines were obtained from ATCC and cultured in either RPMI 1640 or DMEM with 10% fetal bovine serum and 1% penicillin/streptomycin. All cell lines were also checked for mycoplasma every six months and subjected to short tandem repeat (STR) analysis for cell line validation. CRISPR Cas9: CRISPR Guide RNA 2 targeting ERO1α and CRISPR Guide RNA 4 were purchased from Genscript in the pLentiCRISPR V2 plasmid containing puromycin/ampicillin selection marker. Lentivirus was made from HEK 293T cells by co-transfection with GuideRNA of interest, pVSVG, and pPAX2 plasmids. Lentivirus was collected after 48 hours and concentrated using 40% PEG8000. […] Plate was then read on the BioTek Cytation 5 at 530/590 nm. […] Plate was then read at 570 nm. Treated wells were all compared to DMSO control wells to calculate percent growth inhibition and the IC50 was calculated using GraphPad (log(inhibitor) vs growth inhibition). […] Images were then quantified using ImageJ. […] Cells were aliquoted at 1 million cells per PCR tube in PBS and heated in Bio-Rad T100 thermal cycler at indicated temperatures (RT, 46° C., 48° C., 50° C., 52° C., 54° C., 56°, 58° C., and 60° C.) for 3 minutes and aggregation temperature was determined by western blot analysis. […]
For orientation: Tetrazolium dyes change colour on reduction, which living cells bring about.

In general, IC50 refers to the midpoint of a concentration-inhibition curve. Take `CN(C)c1ccc(/C=C2\Oc3cc(O)ccc3C2=O)cc1` [Compound T151742]: the IC50 was found to be 32.2 ± 1.09 µM (read-out: IC50, MTT assay, PC-9 ERO1α KO Clone 1) and 41.5 ± 1.08 µM (read-out: IC50, MTT assay, PC-9 ERO1α KO Clone 2). Besides, the “fold more resistant, ERO1α deleted cells compared to the control cell line” value (MTT) is reported as 2-3 fold.
